The source of these data is patent US9593149B2, “Amylin and calcitonin receptor agonist” (Novo Nordisk A/S, priority 2014, dated 2017).

≈ marks a conversion by molar mass, not a printed value. Numbered stars: 1 amine (or outer) side, 2 acyl side, 3 side chain; on linkers, the order of the positions; unused ones are H or OH. Peptide text beside a SMILES is read from it. * marks the point of attachment. C20 diacid = O=C(O)CCCCCCCCCCCCCCCCCCC(=O)*; C18 diacid = O=C(O)CCCCCCCCCCCCCCCCC(=O)*; γGlu = O=C(O)[C@H](CCC(=O)[*:2])N[*:1]

Data set [1] is described as follows: Assay (IV) determination of solubility. It counts as physicochemical. As to the method: Assay (IV)—Determination of Solubility
The mimylin peptide was dissolved in water at ˜500 nmol/ml and mixed 1:1 with a series of buffers (100 mM glycylglycine pH 3.0, 100 mM glycylglycine pH 4.0, 100 mM glycylglycine pH 5.0, 100 mM bistrispropane pH 6.0, 100 mM bistrispropane pH 6.5, 100 mM bistrispropane pH 7.0, 100 mM bistrispropane pH 7.5, 100 mM bistrispropane pH 8.0).

A short description of data set [2]: Assay (IX) pK, T½ in mini-pig. The conditions noted are these: i.v. It counts as in vivo, Göttingen mini-pigs. Here is the method: Assay (IX)—pK—Determination of T½ in Mini-Pig
Pharmacokinetic (PK) studies in Göttingen mini-pigs were conducted in order to determine the T½ of the mimylin compound according to the Examples as indicated after i.v. administration.
T½ values of the amylin analogues of the invention is determined by pharmacokinetic studies in female Göttingen mini-pigs from Ellegaard Göttingen Minipigs ApS and the principles of laboratory animal care are followed.
An acclimatisation period of approximately 6-10 days was allowed before the animals entered the study. At start of the acclimatisation period the mini-pigs were about 5 to 12 months old and in the weight range of 15-35 kg. The mini-pigs had two central venous catheters inserted which were used for blood sampling.
The studies were conducted in an animal room which was illuminated to give a cycle of approximately 12 hours light and 12 hours darkness. The animals were housed individually. The animals had free access to domestic quality drinking water during the study, and no food restrictions applied for PK studies. The animals were weighed on arrival and on the days of dosing.
In the present studies the test substances were administered intravenously in approximately 5 nmol/kg dose. The animals received a single intravenous injection in one central venous catheter and blood sampling was performed from the other catheter, where possible. Each test substance was given to typically three but in some cases two or four animals.
A full plasma concentration-time profile, employing 12-16 sampling points, was obtained from each animal. In example blood samples were collected according to the following schedule:
After Intravenous Administration:
Pre-dose (0), 0.5, 1, 2, 4, 6, 8, 12, 24, 48, 72, 96, 120, 168 and 240 hours after injection. In some cases also additional blood samples up to 288 hours post injection were taken.
At each sampling time, 0.5 to 2 ml of blood was drawn from each animal. The blood samples were taken via the central venous catheter.
The 0.8 mL blood samples were collected into EDTA test tubes (8 mM EDTA). Blood samples were kept on ice for max 20 min. before centrifugation. Plasma was separated using centrifugation (i.e. at 4° C., 10 min., 2000G) and was immediately transferred to Micronic tubes on dry ice. Approximately 200 μl plasma was transferred to each Micronic tube. The plasma was stored at −20° C. until assayed. The plasma samples were assayed for the content of compound using LCMS.
The plasma concentration-time profiles were analysed by a non-compartmental pharmacokinetic analysis (NCA) using Phoenix WinNonlin 6.3 (Pharsight Inc., Mountain View, Calif., USA). NCA was performed using the individual plasma concentration-time profiles from each animal. T½ is the terminal half-life=In2/λz and was determined from λz, the first order rate constant associated with the terminal (log-linear) portion of the curve, estimated by linear regression of time vs. log concentration.
MS-Method for Amylin and Mimylin Quantification
40 μl plasma is diluted with 120 μl 66.67% EtOH+1% HCOOH and mixed. Centrifuged for 20 min. at 13000 rpm, 4° C. The supernatant is analyzed by an LC-MS method on a Sciex API 3000 and quantitated with a standard made up in plasma

Another data set addresses T1, rat calcitonin receptor (Rattus norvegicus, UniProt P32214).
T1 construct: expressed in transfected cells; host or cells: BHK tk'ts 13 (transient, FuGENE 6)
T1 sequence (P32214 25-479 isoform P32214-2 limits assumed): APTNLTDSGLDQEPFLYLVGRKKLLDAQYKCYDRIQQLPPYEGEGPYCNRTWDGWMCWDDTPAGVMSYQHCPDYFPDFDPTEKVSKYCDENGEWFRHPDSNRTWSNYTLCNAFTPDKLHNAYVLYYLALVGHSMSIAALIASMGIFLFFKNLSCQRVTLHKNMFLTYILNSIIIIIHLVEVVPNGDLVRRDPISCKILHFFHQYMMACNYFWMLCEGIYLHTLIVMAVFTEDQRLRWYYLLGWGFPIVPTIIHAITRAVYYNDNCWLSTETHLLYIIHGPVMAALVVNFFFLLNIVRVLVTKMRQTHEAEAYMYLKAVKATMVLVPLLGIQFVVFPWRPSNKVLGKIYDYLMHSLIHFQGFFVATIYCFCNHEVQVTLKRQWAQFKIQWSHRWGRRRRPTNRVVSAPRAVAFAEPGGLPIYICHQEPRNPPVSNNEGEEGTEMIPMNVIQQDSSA
Briefly: Assay (VIII) binding to the rat calcitonin receptor. The conditions noted are these: membranes; read-out: rCT-R binding IC50. Summed up:
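Competition binding on membranes from BHK tk'ts 13 cells transiently transfected with rat calcitonin receptor, otherwise run as the human receptor assay. Plates washed in cold HBSS, lysed in 0.1 M NaOH/1% SDS and scintillation-counted. IC50 from one-site competition fit as affinity measure.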

Regarding `CC(C)C[C@H](NC(=O)[C@H](C)NC(=O)[C@H](C)NC(=O)[C@@H](NC(=O)[C@H](CO)NC(=O)[C@H](CC(C)C)NC(=O)[C@H](CCC(=O)O)NC(=O)[C@H](CO)NC(=O)[C@H](C)NC(=O)[C@H](CCC(=O)O)NC(=O)CCCCCCCCCCCCCCCCCCC(=O)O)[C@@H](C)O)C(=O)NCC(=O)N[C@@H](CCCNC(=N)N)C(=O)N[C@@H](CC(C)C)C(=O)N[C@@H](CO)C(=O)N[C@@H](C)C(=O)N[C@@H](CCC(=O)O)C(=O)N[C@@H](CC(C)C)C(=O)N[C@@H](Cc1cnc[nH]1)C(=O)N[C@@H](CCC(=O)O)C(=O)N[C@@H](CC(C)C)C(=O)N[C@@H](C)C(=O)N[C@H](C(=O)N[C@@H](CC(C)C)C(=O)N1CCC[C@H]1C(=O)N[C@@H](CCCNC(=N)N)C(=O)N[C@H](C(=O)N[C@@H](CCC(=O)O)C(=O)N[C@H](C(=O)NCC(=O)N[C@@H](CO)C(=O)NCC(=O)N[C@@H](CO)C(=O)N1CCC[C@H]1C(N)=O)[C@@H](C)O)[C@@H](C)O)[C@@H](C)O` [compound 22, [N-terminal(C20 diacid), 30S, 31G]mimylin] ({C20 diacid}-EASELSTAALGRLSAELHELATLPRTETGSGSP-NH2), the Solubility result in data set [1] (pH 3.0), in data set [1] (pH 4.0), in data set [1] (pH 5.0), in data set [1] (pH 6.0), in data set [1] (pH 6.5) and in data set [1] (pH 7.0) was “≧200 μM” in each case. For the same molecule, the Solubility result in data set [1] (pH 7.5) and in data set [1] (pH 8.0) was “≧200 μM” each time. Also, in data set [2], the “PK mini pig iv T½” value was 108 h.

As a reminder, the IC50 is the concentration at which inhibition is half-maximal. Consider `CC(C)C[C@H](NC(=O)[C@H](C)NC(=O)[C@H](C)NC(=O)[C@@H](NC(=O)[C@H](CO)NC(=O)[C@H](CC(C)C)NC(=O)[C@H](CCC(=O)O)NC(=O)[C@H](CO)NC(=O)[C@H](C)NC(=O)CC[C@H](NC(=O)CCCCCCCCCCCCCCCCCCC(=O)O)C(=O)O)[C@@H](C)O)C(=O)NCC(=O)N[C@@H](CCCNC(=N)N)C(=O)N[C@@H](CC(C)C)C(=O)N[C@@H](CO)C(=O)N[C@@H](C)C(=O)N[C@@H](CCC(=O)O)C(=O)N[C@@H](CC(C)C)C(=O)N[C@@H](Cc1cnc[nH]1)C(=O)N[C@@H](CCC(=O)O)C(=O)N[C@@H](CC(C)C)C(=O)N[C@@H](C)C(=O)N[C@H](C(=O)N[C@@H](Cc1ccc(O)cc1)C(=O)N1CCC[C@H]1C(=O)N[C@@H](CCCNC(=N)N)C(=O)N[C@H](C(=O)N[C@@H](CCC(=O)O)C(=O)N[C@H](C(=O)NCC(=O)N[C@@H](CO)C(=O)NCC(=O)N[C@@H](CO)C(=O)N1CCC[C@H]1C(N)=O)[C@@H](C)O)[C@@H](C)O)[C@@H](C)O` [compound 56, [N-terminal(C20 diacid-gGlu), des1, 23Y, 30S, 31G]mimylin] ({C20 diacid-γGlu}-ASELSTAALGRLSAELHELATYPRTETGSGSP-NH2), for which the Solubility entry in data set [1] (pH 3.0), in data set [1] (pH 4.0), in data set [1] (pH 5.0), in data set [1] (pH 6.0), in data set [1] (pH 6.5) and in data set [1] (pH 7.0) was “≧200 μM” each time. Besides, the Solubility entry in data set [1] (pH 7.5) and in data set [1] (pH 8.0) was “≧200 μM” in each case. At rat calcitonin receptor, the IC50 turned out to be 0.202 nM. In addition, the “PK mini pig iv T½” value in data set [2] is on record as 88 h.

The solubility is the concentration that dissolves in the medium under given conditions. Regarding `CC(C)C[C@H](NC(=O)CNC(=O)[C@H](CO)NC(=O)[C@H](C)NC(=O)CC[C@H](NC(=O)CCCCCCCCCCCCCCCCC(=O)O)C(=O)O)C(=O)N[C@@H](CO)C(=O)N[C@H](C(=O)N[C@@H](C)C(=O)N[C@@H](C)C(=O)N[C@@H](CC(C)C)C(=O)NCC(=O)N[C@@H](CCCNC(=N)N)C(=O)N[C@@H](CC(C)C)C(=O)N[C@@H](CO)C(=O)N[C@@H](CCC(N)=O)C(=O)N[C@@H](CCC(=O)O)C(=O)N[C@@H](CC(C)C)C(=O)N[C@@H](Cc1cnc[nH]1)C(=O)N[C@@H](CCC(=O)O)C(=O)N[C@@H](CC(C)C)C(=O)N[C@@H](CCC(N)=O)C(=O)N[C@H](C(=O)N[C@@H](Cc1ccc(O)cc1)C(=O)N1CCC[C@H]1C(=O)N[C@@H](CCCNC(=N)N)C(=O)N[C@H](C(=O)N[C@@H](CCC(=O)O)C(=O)N[C@H](C(=O)NCC(=O)N[C@@H](CO)C(=O)NCC(=O)N[C@H](C(=O)N[C@@H](Cc1ccc(O)cc1)C(N)=O)[C@@H](C)O)[C@@H](C)O)[C@@H](C)O)[C@@H](C)O)[C@@H](C)O` [compound 110, [N-terminal(C18 diacid-gGlu), des1, 4G, 15Q, 21Q, 23Y, 30S, 31G, 32T, 33Y]mimylin] ({C18 diacid-γGlu}-ASGLSTAALGRLSQELHELQTYPRTETGSGTY-NH2), the Solubility entry in data set [1] (pH 3.0), in data set [1] (pH 4.0), in data set [1] (pH 6.0), in data set [1] (pH 6.5), in data set [1] (pH 7.0) and in data set [1] (pH 7.5) was “≧200 μM” each time. Besides, the Solubility result in data set [1] (pH 8.0) is given as “≧200 μM”. In data set [1] (pH 5.0), this molecule gave a solubility at 18 h of 149 µM (≈ 569 µg/mL). On rat calcitonin receptor, the IC50 is 0.013 nM. Besides, the “PK mini pig iv T½” value in data set [2] is 32 h.

On to `CC(C)C[C@H](NC(=O)[C@H](CCCNC(=N)N)NC(=O)CNC(=O)[C@H](CC(C)C)NC(=O)[C@@H](NC(=O)[C@H](C)NC(=O)[C@@H](NC(=O)[C@H](CO)NC(=O)[C@H](CC(C)C)NC(=O)[C@H](CCC(N)=O)NC(=O)[C@H](CO)NC(=O)[C@H](C)NC(=O)CC[C@H](NC(=O)CCCCCCCCCCCCCCCCCCC(=O)O)C(=O)O)[C@@H](C)O)C(C)C)C(=O)N[C@@H](CO)C(=O)N[C@@H](CCC(N)=O)C(=O)N[C@@H](CCC(=O)O)C(=O)N[C@@H](CC(C)C)C(=O)N[C@@H](Cc1cnc[nH]1)C(=O)N[C@@H](CCC(=O)O)C(=O)N[C@@H](CC(C)C)C(=O)N[C@@H](CCC(N)=O)C(=O)N[C@H](C(=O)N[C@@H](Cc1ccc(O)cc1)C(=O)N1CCC[C@H]1C(=O)N[C@@H](CCCNC(=N)N)C(=O)N[C@H](C(=O)N[C@@H](CCC(=O)O)C(=O)N[C@H](C(=O)NCC(=O)N[C@@H](CO)C(=O)N[C@@H](CCC(N)=O)C(=O)N[C@H](C(=O)N[C@@H](Cc1ccc(O)cc1)C(N)=O)[C@@H](C)O)[C@@H](C)O)[C@@H](C)O)[C@@H](C)O` [compound 116, [N-terminal(C20 diacid-gGlu), des1, 4Q, 9V, 15Q, 21Q, 23Y, 30S, 31Q, 32T, 33Y]mimylin] ({C20 diacid-γGlu}-ASQLSTAVLGRLSQELHELQTYPRTETGSQTY-NH2), for which the Solubility result in data set [1] (pH 3.0), in data set [1] (pH 4.0), in data set [1] (pH 6.0), in data set [1] (pH 6.5), in data set [1] (pH 7.0) and in data set [1] (pH 7.5) was “≧200 μM” throughout. Also, the Solubility entry in data set [1] (pH 8.0) is “≧200 μM”. The molecule also yielded a solubility at 18 h in data set [1] (pH 5.0) of 32 µM (≈ 129 µg/mL). In addition, the “PK mini pig iv T½” value in data set [2] is on record as 87 h.
